The values below come from patent US7674881B2, “Convergent synthesis of proteins by kinetically controlled ligation” (The University of Chicago, priority 2005, dated 2010).

Like-named read-outs stand apart in the source and are kept apart here.

One may read the pKa as the negative logarithm of the acid dissociation constant. Read a low pKa as a group that gives up its proton readily.

The nature of data set [1]: pKa of thiol catalysts (Table 3).
Data set [2] can be described thus: Solubility of thiol catalysts at pH 7 (Table 3).

Regarding `O=C(O)Cc1ccc(S)cc1` [4-mercaptophenylacetic acid], the “Solubility at pH 7” value was “Very soluble”.
In the case of `Sc1ccccc1` [Thiophenol], the “Solubility at pH 7” value was “Slightly soluble”.
Take `Sc1ccccn1` [2-mercaptopyridine]: the “Solubility at pH 7” value was “Soluble”. The molecule further had a pKa in the data set “physchem” of -1.07.
Regarding `Cc1ccc(S)cc1` [4-methylthiophenol], the “Solubility at pH 7” value was “Sparingly soluble”. Moreover, the pKa in “physchem” is 6.8.
In the same order, the values of `O=S(=O)([O-])CCS.[Na+]` [MESNA, sodium 2-mercaptoethanesulfonate] are “Very soluble” and 9.08.
As for `O=[N+]([O-])c1ccc(S)cc1` [4-nitrothiophenol], the “Solubility at pH 7” value was “Soluble”.
Turning to `Sc1ncccn1` [2-mercaptopyrimidine], the “Solubility at pH 7” value is listed as “Very soluble”. In “physchem”, the pKa stood at 2.03.
`SCc1ccccc1` [Benzyl mercaptan] returned a pKa in data set [1] of 9.67. Further, the “Solubility at pH 7” value in data set [2] is “Sparingly soluble”.
`COc1ccc(S)cc1` [4-methoxythiophenol]: the “Solubility at pH 7” value was “Slightly soluble”. The pKa in “physchem” was found to be 6.75.
Take `Nc1ccc(S)cc1` [4-aminothiophenol]: the “Solubility at pH 7” value is “Very soluble”. Also, the pKa in “physchem” turned out to be 8.86.
`Oc1ccc(S)cc1` [4-mercaptophenol]: the “Solubility at pH 7” value is given as “Soluble”. The molecule also had a pKa in the data set “physchem” of 6.8.
`Sc1ccc(Cl)cc1` [4-chlorothiophenol] showed a pKa in data set [1] of 6.11. The “Solubility at pH 7” value in data set [2] is recorded as “Sparingly soluble”.
Turning to `Oc1cccc(S)c1` [3-mercaptophenol], the “Solubility at pH 7” value is “Very soluble”. For the same molecule, the pKa in the data set “physchem” worked out at 6.5.
The like results for `O=C(O)c1cccc(S)c1` [3-mercaptobenzoic acid] were, in that order, “Very soluble” and 5.78.
